Experimental data taken from US20190282476A1, “Cleansing Composition” (Colgate-Palmolive Company, priority 2015, published 2019).

Test system: typical microorganisms encountered in personal care compositions
Excerpt: The cleansing compositions, e.g. any of Composition 1 or 1.1 to 1.27, include as preservatives, phenoxyethanol, sodium salicylate and a chelating agent (e.g., a salt of ethylenediaminetetraacetic acid). […] It is well known that preservative agents have established minimum inhibitory concentrations, and below such concentrations preservative agents are not effective in preventing microbial growth.

O=C([O-])c1ccccc1O.[Na+] [sodium salicylate]
MIC: about 0.019 % by weight
